# How the values were obtained:
# [1] = tested on: human colorectal cancer cell line, COLO-320DM; test: Cell proliferation inhibitory activity test (Celltiter-Glo Luminescent Cell Viability Assay); type: cell-based; details: COLO-320DM cells, 96 hours, class symbols, read-out: COLO-320 DM (cell proliferation inhibitory activity, GI50 value)
# How it was run: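 Cells grown in RPMI-1640 with 10% FBS and 2 mM glutamine, seeded overnight, then exposed to compound (1% DMSO final) for 96 h at 37° C., 5% CO2. Viability read by ATP luminescence; GI50 is the concentration reducing cell growth to 50% of DMSO control.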
# [2] = target: T1, tankyrase 1 (TNKS 1) (Homo sapiens, UniProt O95271); test: Tankyrase inhibitory activity test (ELISA, self-polyADP ribosylation), tankyrase 1; type: biochemical; details: ELISA, self-polyADP ribosylation; class symbols; read-out: TNKS1 (inhibitory activity against tankyrase 1, IC50 value)
# T1 construct: 1,024-1,327aa; made in house; host or cells: cell-free protein synthesis system
# How it was run: (§1)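 Flag-tagged TNKS1 (1,024-1,327aa, SAM+PARP) and TNKS2 (613-1,116aa, ANK5+SAM+PARP) were made cell-free and captured overnight at 4 °C on anti-FLAG M2 plates. After 10 min compound preincubation in Tris pH 8.0/MgCl2/DTT buffer, NAD (225 μM) plus biotin-NAD (25 μM) solution was added for 45 min at 30 °C. Auto-PARylation was read by streptavidin-HRP chemiluminescence, giving IC50 from residual activity.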
# [3] = target: T2, tankyrase 2 (TNKS 2) (Homo sapiens, UniProt Q9H2K2); test: Tankyrase inhibitory activity test (ELISA, self-polyADP ribosylation), tankyrase 2; type: biochemical; details: ELISA, self-polyADP ribosylation; class symbols; read-out: TNKS2 (inhibitory activity against tankyrase 2, IC50 value)
# T2 construct: 613-1, 116aa; made in house; host or cells: cell-free protein synthesis system
# How it was run: as §1
# T2 sequence (Q9H2K2 613-1166): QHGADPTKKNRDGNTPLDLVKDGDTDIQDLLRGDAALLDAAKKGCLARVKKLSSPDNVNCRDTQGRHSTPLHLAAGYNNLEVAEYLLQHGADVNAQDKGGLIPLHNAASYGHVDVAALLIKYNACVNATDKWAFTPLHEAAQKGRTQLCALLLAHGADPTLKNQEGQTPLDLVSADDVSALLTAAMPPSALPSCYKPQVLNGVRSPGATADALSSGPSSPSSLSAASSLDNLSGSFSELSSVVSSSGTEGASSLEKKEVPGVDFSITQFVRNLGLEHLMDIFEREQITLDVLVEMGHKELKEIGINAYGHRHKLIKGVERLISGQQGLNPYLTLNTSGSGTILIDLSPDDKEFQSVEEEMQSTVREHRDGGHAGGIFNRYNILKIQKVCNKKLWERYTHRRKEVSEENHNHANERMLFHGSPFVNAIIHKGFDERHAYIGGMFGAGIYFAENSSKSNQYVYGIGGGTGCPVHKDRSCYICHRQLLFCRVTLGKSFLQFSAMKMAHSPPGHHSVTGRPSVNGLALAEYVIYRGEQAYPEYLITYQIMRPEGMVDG
# T1 sequence (O95271 1024-1327): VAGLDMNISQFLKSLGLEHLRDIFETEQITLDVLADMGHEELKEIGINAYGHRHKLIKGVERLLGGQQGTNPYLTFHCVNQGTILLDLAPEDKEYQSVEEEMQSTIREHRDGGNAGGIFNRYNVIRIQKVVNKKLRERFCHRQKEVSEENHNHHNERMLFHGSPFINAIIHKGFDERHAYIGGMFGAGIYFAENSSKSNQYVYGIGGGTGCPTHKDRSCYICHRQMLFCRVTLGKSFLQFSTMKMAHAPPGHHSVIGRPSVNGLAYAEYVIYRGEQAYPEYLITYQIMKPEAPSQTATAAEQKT
SMILES,GI50 [1] [nM],IC50 [2] [nM],IC50 [3] [nM]
"CN1CCCc2c1nc(N1CCC3(CC1)C(=O)N(C)c1cc(OCCN4CCCC4CO)cc(F)c13)[nH]c2=O (stereo not drawn) [Example 394, 4-fluoro-6-{2-[2-(hy-droxymethyl)pyrrolidin-1-yl]ethoxy}-1-methyl-1′-(8-methyl-4-oxo-3,4,5,6,7,8-hexahydropyrido [2,3-d]pyrimidin-2-yl)spiro [indoline-3,4′-piperidin]-2(1H)-one]",600 to 1000,< 20,< 20
"CN1CCCc2c(O)nc(N3CCC4(CC3)OC(=O)c3cc(OCCN5CCCC5)cc(F)c34)nc21 [Example 395, 4-fluoro-1′-(4-hydroxy-8-methyl-6,7-dihydro-5H-pyrido[2,3-d]pyrimidin-2-yl)-6-(2-pyrrolidin-1-ylethoxy)spiro[2-benzofuran-3,4′-piperidine]-1-one]",600 to 1000,< 20,< 20
"CN(C)CCOc1ccc(Cl)c2c1N(C)C(=O)C21CCN(c2nc3c(c(=O)[nH]2)CCCN3C)CC1 [Example 396, 4-chloro-7-[2-(dimethylamino)ethoxy]-1-methyl-1′-(8-methyl-4-oxo-3,4,5,6,7,8-hexahydro-pyrido [2,3-d]pyrimidin-2-yl)spiro [indoline-3,4′-piperidin]-2(1H)-one]",100 to 600,< 20,< 20
"CN(C)CCOc1ccc(F)c2c1N(C)C(=O)C21CCN(c2nc3c(c(=O)[nH]2)CCCN3C)CC1 [Example 401, 7-[2-(dimethylamino)ethoxy]-4-fluoro-1′-(4-hy-droxy-8-methyl-6,7-di-hydro-5H-pyrido[2,3-d]pyrimidin-2-yl)-1-methyl spiro[indole-3,4′-piperidin]-2-one]",100 to 600,< 20,< 20
"CN1CCCc2c1nc(N1CCC3(CC1)C(=O)N(CC(F)(F)F)c1cc(OCCN4CCCC4)cc(F)c13)[nH]c2=O [Example 404, 4-fluoro-1′-(8-methyl-4-oxo-3,4,5,6,7,8-hexa hydropyrido [2,3-d]pyrimidin-2-yl)-6-[2-(pyrroli-din-1-yl)ethoxy]-1-(2,2,2-trifluoroethyl) spiro [indoline-3,4′-piperidin]-2(1H)-one]",600 to 1000,20 to 200,20 to 200
COCCN1C(=O)C2(CCN(c3nc4c(c(=O)[nH]3)CCCN4C)CC2)c2c(F)cc(OCCN(C)C)cc21 [Example 405],600 to 1000,< 20,< 20
COCCN1C(=O)C2(CCN(c3nc4c(c(=O)[nH]3)CCCN4C)CC2)c2c(F)cc(OCC(=O)O)cc21 [Example 409],600 to 1000,< 20,< 20
"CN1CCCc2c1nc(N1CCC3(CC1)C(=O)N(C)c1c(OCC(=O)O)ccc(F)c13)[nH]c2=O [Example 412, 2-[4-fluoro-1′-(4-hy-droxy-8-methyl-6,7-di-hydro-5H-pyrido[2,3-d]pyrimidin-2-yl)-1-meth-yl-2-oxospiro[indole-3,4′-piperidin]-7-yl] oxyacetic acid]",600 to 1000,< 20,< 20
CN1CCC(COc2ccc(F)c3c2N(C)C(=O)C32CCN(c3nc4c(c(=O)[nH]3)CCCN4C)CC2)CC1 [Example 413],600 to 1000,20 to 200,< 20
"CN1C(=O)C2(CCN(c3nc4c(c(=O)[nH]3)CCCN4)CC2)c2c(F)ccc(OCCO)c21 [Example 414, 4-fluoro-7-(2-hydroxy-ethoxy)-1′-(4-hydroxy-5,6,7,8-tetrahdyro-pyrido[2,3-d]pyrimidin-2-yl)-1-methyl-spiro [indole-3,4′-piperidin]-2-one]",600 to 1000,< 20,< 20
"CN1CCCc2c1nc(N1CCC3(CC1)C(=O)N(C)c1c(OCc4nnn[nH]4)ccc(Cl)c13)[nH]c2=O [Example 415, 4-chloro-1′-(4-hydroxy-8-methyl-6,7-dihydro-5H-pyrido[2,3-b]py-rimidin-2-yl)-1-meth-yl-7-(2H-tetrazol-5-yl-methoxy)spiro[indole-3,4′-piperidin]-2-one]",600 to 1000,< 20,< 20

# Next, values leading:
GI50 [1] [nM],IC50 [2] [nM],IC50 [3] [nM],SMILES
100 to 600,< 20,< 20,"CN1CCCc2c1nc(N1CCC3(CC1)C(=O)N(C)c1cc(OCc4nnn[nH]4)cc(F)c13)[nH]c2=O [Example 393, 6-[(1H-tetrazol-5-yl)methoxy]-4-fluoro-1-methyl-1′-(8-methyl-4-oxo-3,4,5,6,7,8-hexahydropyrido [2,3-d]pyrimidin-2-yl)spiro [indoline-3,4′-piperidin]-2(1H)-one]"
100 to 600,20 to 200,20 to 200,"COCCN1CCN(c2cc(F)c3c(c2)N(C)C(=O)C32CCN(c3nc4c(c(=O)[nH]3)CCCN4C)CC2)CC1 [Example 397, 4-fluoro-6-(4-(2-methoxy-ethyl)piperazin-1-yl)-1-methyl-1′-(8-methyl-4-oxo-3,4,5,6,7,8-hexahydro-pyrido [2,3-d]pyrimidin-2-yl) spiro[indoline-3,4′-piperidin]-2(1H)-one]"
100 to 600,< 20,< 20,"CN1CCCc2c1nc(N1CCC3(CC1)C(=O)N(C)c1cc(N4CCN(C5COC5)CC4)cc(F)c13)[nH]c2=O [Example 398, 4-fluoro-1-methyl-1′-(8-methyl-4-oxo-3,4,5,6,7,8-hexahydro-pyrido [2,3-d]pyrimidin-2-yl)-6-(4-(oxetan-3-yl)piperazin-1-yl)spiro [indoline-3,4′-piperidin]-2(1H)-one]"
100 to 600,< 20,< 20,"CN1CCCc2c1nc(N1CCC3(CC1)C(=O)N(CC(F)(F)F)c1cc(OCCO)cc(F)c13)[nH]c2=O [Example 399, 4-fluoro-6-(2-hydroxy-ethoxy)-1′-(8-methyl-4-oxo-3,4,5,6,7,8-hexahydro-pyrido [2,3-d]pyri-midin-2-yl)-1-(2,2,2-trifluoroethyl) spiro [indoline-3,4′-piperidin]-2(1H)-one]"
100 to 600,20 to 200,20 to 200,"CN(C)CCOc1cc(F)c2c(c1)N(CC(F)(F)F)C(=O)C21CCN(c2nc3c(c(=O)[nH]2)CCCN3C)CC1 [Example 400, 6-[2-(di-methylamino)ethoxy]-4-fluoro-1′-(8-methyl-4-oxo-3,4,5,6,7,8-hexahydro-pyrido [2,3-d]pyrimidin-2-yl)-1-(2,2,2-trifluoroethyl) spiro[indoline-3,4′-piperidin]-2(1H)-one]"
100 to 600,20 to 200,< 20,"CN1CCN(c2cc(F)c3c(c2)N(CC#N)C(=O)C32CCN(c3nc4c(c(=O)[nH]3)CCCN4C)CC2)CC1 [Example 402, [4-fluoro-1′-(8-methyl-4-oxo-3,4,5,6,7,8-hexahydropyrido [2,3-d]py-rimidin-2-yl)-6-(4-methyl-piperazin-1-yl)-2-oxo-spiro[indoline-3,4′-piperidin]-1(2H)-yl] acetonitrile]"
100 to 600,< 20,< 20,"CC(=O)N1CCN(c2cc(F)c3c(c2)N(C)C(=O)C32CCN(c3nc4c(c(=O)[nH]3)CCCN4C)CC2)CC1 [Example 403, 6-(4-acetylpiperazin-1-yl)-4-fluoro-1-methyl-1′-(8-methyl-4-oxo-3,4,5,6,7,8-hexahydropy-rido[2,3-d]pyrimidin-2-yl)-spiro [indoline-3,4′-piperidin]-2(1H)-one]"
< 100,20 to 200,20 to 200,"CN1CCN(CCOc2cc(F)c3c(c2)N(CC(F)(F)F)C(=O)C32CCN(c3nc4c(c(=O)[nH]3)CCCN4C)CC2)CC1 [Example 406, 4-fluoro-1′-(8-methyl-4-oxo-3,4,5,6,7,8-hex-ahydropyrido[2,3-d]pyrimidin-2-yl)-6-[2-(4-methylpiperazin-1-yl)ethoxy]-1-(2,2,2-trifluoroethyl)spiro [indoline-3,4′-piperidin]-2(1H)-one]"
100 to 600,20 to 200,< 20,"COCCN1C(=O)C2(CCN(c3nc4c(c(=O)[nH]3)CCCN4C)CC2)c2c(F)cc(N3CCN(C)CC3)cc21 [Example 407, 4-fluoro-1-(2-methoxy-ethyl)-1′-(8-methyl-4-oxo-3,4,5,6,7,8-hexahydropyrido[2,3-d]pyrimidin-2-yl)-6-(4-methylpiperazin-1-yl) spiro[indoline-3,4′-piperidin]-2(1H)-one]"
100 to 600,< 20,< 20,"COCCN1C(=O)C2(CCN(c3nc4c(c(=O)[nH]3)CCCN4C)CC2)c2c(F)cc(OCCO)cc21 [Example 410, 4-fluoro-6-(2-hydroxy-ethoxy)-1-(2-methoxyethyl)-1′-(8-methyl-4-oxo-3,4,5,6,7,8-hexahydro-pyrido[2,3-d]pyrimi-din-2-yl)spiro[indoline-3,4′-piperidin]-2(1H)-one]"
100 to 600,< 20,< 20,COCCN1C(=O)C2(CCN(c3nc4c(c(=O)[nH]3)CCCN4C)CC2)c2c(F)cc(N3CCNCC3)cc21 [Example 416]

# Reference: US11414429B2, “Compound or pharmaceutically acceptable salt thereof” (RIKEN, priority 2016, dated 2022)
